Results: patent US20240158446A1, “CYCLIC COMPOUND HAVING SELECTIVE INHIBITORY ACTION ON KRAS OVER HRAS AND NRAS” (CHUGAI SEIYAKU KABUSHIKI KAISHA, priority 2021, published 2024)

What was measured:
[1] = molecular target: GDP-bound HRAS wild-type protein (Homo sapiens, UniProt P01112); assay: Binding to HRAS by surface plasmon resonance (SPR), Single Cycle Kinetics; conditions: for HRAS/KRAS (ratio of KD value with respect to GDP-bound HRAS wild-type protein to KD value with respect to KRAS): SPR KD ratio HRAS/KRAS, class symbols
Chain of GDP-bound HRAS wild-type protein (P01112 whole entry): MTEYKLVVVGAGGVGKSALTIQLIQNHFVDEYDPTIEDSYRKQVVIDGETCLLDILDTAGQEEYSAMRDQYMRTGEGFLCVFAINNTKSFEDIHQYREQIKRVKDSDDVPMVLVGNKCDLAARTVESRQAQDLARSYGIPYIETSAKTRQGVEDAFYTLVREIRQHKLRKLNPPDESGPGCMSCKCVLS

[2] = molecular target: GDP-bound NRAS wild-type protein (Homo sapiens, UniProt P01111); assay: Binding to NRAS by surface plasmon resonance (SPR), Single Cycle Kinetics; conditions: for NRAS/KRAS (ratio of KD value with respect to GDP-bound NRAS wild-type protein to KD value with respect to KRAS): SPR KD ratio NRAS/KRAS, class symbols
Chain of GDP-bound NRAS wild-type protein (P01111 whole entry): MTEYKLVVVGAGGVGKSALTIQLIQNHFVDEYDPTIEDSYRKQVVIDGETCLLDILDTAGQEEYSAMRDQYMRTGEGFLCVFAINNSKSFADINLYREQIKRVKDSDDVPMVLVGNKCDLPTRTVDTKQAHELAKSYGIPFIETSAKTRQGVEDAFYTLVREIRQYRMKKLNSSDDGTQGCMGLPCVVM

[3] = SPR, GDP-bound HRAS wild-type protein vs GDP-bound KRAS wild-type protein
[4] = SPR, GDP-bound NRAS wild-type protein vs GDP-bound KRAS wild-type protein

SMILES	HRAS/KRAS (ratio of KD value for HRAS to KD value for KRAS) [1, 3]	NRAS/KRAS (ratio of KD value for NRAS to KD value for KRAS) [2, 4]	HRAS/KRAS (ratio of KD value with respect to GDP-bound HRAS wild-type protein to KD value with respect to KRAS) [1]	NRAS/KRAS (ratio of KD value with respect to GDP-bound NRAS wild-type protein to KD value with respect to KRAS) [2]	further results
CCO[C@@H]1C[C@H]2C(=O)NC3(CCC3)C(=O)N(C)[C@@H](C3CCCC3)C(=O)N(C)[C@H](C(=O)N(C)CC)CC(=O)N(C)[C@H]3CCCCCc4ccc(cc4)C[C@@H](C(=O)N(C)CC(=O)N[C@@H](CCc4cc(F)c(C(F)(F)F)c(F)c4)C(=O)N2C1)N1CC/C=C\C[C@@H](C1=O)N(C)C(=O)CN(C)C(=O)[C@H]([C@@H](C)CC)NC3=O (stereo in doubt) [PP2117]	A (a compound having 10 or more and less than 20 is denoted as A)	A (a compound having 10 or more and less than 20 is denoted as A)			
CC[C@H](C)[C@@H]1NC(=O)[C@H](CC(C)C)N(C)C(=O)C[C@@H](C(=O)N2CCOCC2)N(C)C(=O)[C@H](C2CCCC2)N(C)C(=O)C2(CCC2)NC(=O)[C@@H]2[C@H](OC)CCN2C(=O)[C@H](CCc2cc(F)c(C(F)(F)F)c(F)c2)NC(=O)CN(C)C(=O)[C@H](Cc2ccc(C(F)(F)F)cc2)N2CCCC[C@@H](C2=O)N(C)C(=O)CN(C)C1=O [PP1084]	B (a compound having 3 or more and less than 10 is denoted as B)	C (A compound having a KD ratio of 0.1 or more and less than 3 is denoted as C)			
CC[C@H](C)[C@@H]1NC(=O)[C@H](CC(C)C)N(C)C(=O)C[C@@H](C(=O)N2CCOCC2)N(C)C(=O)[C@H](C2CCCC2)N(C)C(=O)C2(CCCC2)NC(=O)[C@@H]2CCCN2C(=O)[C@H](CCc2cc(F)c(C(F)(F)F)c(F)c2)NC(=O)CN(C)C(=O)[C@H](Cc2ccc(C(F)(F)F)cc2)N2CCCC[C@@H](C2=O)N(C)C(=O)[C@H](CC)N(C)C1=O [PP0551]					HRAS/KRAS (ratio of KD value with respect to HRAS to KD value with respect to KRAS) [1, 3]: B (a compound having 3 or more and less than 10 is denoted as B); NRAS/KRAS (ratio of KD value with respect to NRAS to KD value with respect to KRAS) [2, 4]: C (A compound having a KD ratio of 0.1 or more and less than 3 is denoted as C)
CCC[C@H]1C(=O)N[C@@H]([C@@H](C)CC)C(=O)N(C)CC(=O)N(C)[C@H]2C/C=C\CCN(C2=O)[C@@H](Cc2ccc(C)cc2)C(=O)N(C)CC(=O)N[C@@H](CCc2ccc(C(F)(F)F)c(Cl)c2)C(=O)N2C[C@H](CC)C[C@H]2C(=O)NC2(CCC2)C(=O)N(C)[C@@H](C2CCCC2)C(=O)N(C)[C@H](C(=O)N(C)C)CC(=O)N1C [PP2237]	A (a compound having 10 or more and less than 20 is denoted as A)	A (a compound having 10 or more and less than 20 is denoted as A)			
CCOC[C@H]1C(=O)N[C@@H]([C@@H](C)CC)C(=O)N(C)CC(=O)N(C)[C@H]2C/C=C\CCN(C2=O)[C@@H](Cc2ccc(C(C)C)cc2)C(=O)N(C)CC(=O)N[C@@H](CCc2ccc(C(F)(F)F)c(OC)c2)C(=O)N2C[C@@H](C)C[C@H]2C(=O)NC2(CC(C)(C)C2)C(=O)N(C)[C@@H](C2CCCC2)C(=O)N(C)[C@H](C(=O)N(C)CC)CC(=O)N1C [PP2701]			A (a compound having 10 or more and less than 20 is denoted as A)	A (a compound having 10 or more and less than 20 is denoted as A)	
CCC[C@H]1C(=O)N[C@@H]([C@@H](C)CC)C(=O)N(C)CC(=O)N(C)[C@H]2C/C=C\CCN(C2=O)[C@@H](Cc2ccc(C(F)(F)F)cc2)C(=O)N(C)CC(=O)N[C@@H](CCc2cc(C)c(C3CC3)c(C)c2)C(=O)N2C[C@H](OCC)C[C@H]2C(=O)NC2(CC(C)(C)C2)C(=O)N(C)[C@@H](C2CCCC2)C(=O)N(C)[C@H](C(=O)N(C)C)CC(=O)N1C [PP2863]			A (a compound having 10 or more and less than 20 is denoted as A)	A (a compound having 10 or more and less than 20 is denoted as A)	
CCC[C@H]1C(=O)N[C@@H]([C@@H](C)CC)C(=O)N(C2CC2)CC(=O)N(C)[C@H]2C/C=C\CCN(C2=O)[C@@H](Cc2ccc(C)cc2)C(=O)N(C)CC(=O)N[C@@H](CCc2ccc(C3CC3)c(C)c2)C(=O)N2C[C@H](OCC)C[C@H]2C(=O)NC2(CC(C)(C)C2)C(=O)N(C)[C@@H](C2CCCC2)C(=O)N(C)[C@H](C(=O)N(C)C)CC(=O)N1C [PP2886]			A (a compound having 10 or more and less than 20 is denoted as A)	A (a compound having 10 or more and less than 20 is denoted as A)	
CC[C@H](C)[C@@H]1NC(=O)[C@H](CC(C)C)N(C)C(=O)C[C@@H](C(=O)N2CCOCC2)N(C)C(=O)[C@H](C2CCCC2)N(C)C(=O)C2(CCC2)NC(=O)[C@@H]2C[C@@H](O)CN2C(=O)[C@H](CCc2cc(F)c(C(F)(F)F)c(F)c2)NC(=O)CN(C)C(=O)[C@H](Cc2ccc(C(F)(F)F)cc2)N2CCCCC[C@@H](C2=O)N(C)C(=O)CN(C)C1=O [PP0871]	B (a compound having 3 or more and less than 10 is denoted as B)	B (a compound having 3 or more and less than 10 is denoted as B)			
